From patent US20240415778A1, “ORAL PREPARATION CONTAINING PROGESTOGEN, AND PREPARATION METHOD AND USE” (priority 2021, published 2024)
“Also recorded” adds a separate entry of the source. Like-named read-outs stand apart in the source and are kept apart here.

How the values were obtained:
[1] = Solubility property of 17-HPC in different excipients; assay type: physicochemical
Excerpt: However, the stable solubility concentrations vary for each excipient, with specific values provided in the last column of Table 2.

[2] = Acceptable daily intake (ADI) of excipients
Excerpt: The applicant has previously collaborated with other entities to develop an oral formulation of 17-α hydroxyprogesterone and obtained a patent for it.

[3] = WHO-JECFA database or supplier values; cited from earlier work

Suggested working concentrations based on physical stability and saturated solubility results ([1]; Glycerol Monooleate (Maisine ® CC)) [mg/g] | Suggested working concentrations based on physical stability and saturated solubility results ([1]; Mono-Octanoin Glyceride (Capmul 808G)) [mg/g] | Suggested working concentrations based on physical stability and saturated solubility results ([1]; Oleic Acid) [mg/g] | Suggested working concentrations based on physical stability and saturated solubility results ([1]; Oleic Acid Glyceride (Peceol ®)) [mg/g] | Suggested working concentrations based on physical stability and saturated solubility results ([1]; PEG35 Castor Oil (Kolliphor ® ELP)) [mg/g] | Suggested working concentrations based on physical stability and saturated solubility results ([1]; Propylene Glycol Monocaprylate (Capryol ® 90)) [mg/g] | Suggested working concentrations based on physical stability and saturated solubility results ([1]; Propylene Glycol Monolaurate (Lauroglycol ® 90)) [mg/g] | ADI/Weight 60 kg [2] | ADI/Weight 60 kg ([2]; for 60 kg body weight) | Compound | Suggested working concentrations based on physical stability and saturated solubility results ([1]; Olive Oil) | Suggested working concentrations based on physical stability and saturated solubility results ([1]; PEG15 Hydroxystearate (Kolliphor ® HS15)) | Suggested working concentrations based on physical stability and saturated solubility results ([1]; PEG40 Hydrogenated Castor Oil (Kolliphor ® RH40)) | Acceptable Daily Intake (ADI) [3]
65 | 120 | 70 | 50 | 30 | 150 | 100 | – | – | CCCCCC(=O)O[C@]1(C(C)=O)CC[C@H]2[C@@H]3CCC4=CC(=O)CC[C@]4(C)[C@H]3CC[C@@]21C [Formulation 17-HPC, hydroxyprogesterone caproate] | insufficient to meet the meaningful solubility concentration required for adult formulations | cannot achieve stable solubility; also recorded: Chemically unstable | cannot achieve stable solubility; also recorded: Chemically unstable | –
– | – | – | – | – | – | – | none | – | CCCCCCCC(=O)OCC(O)CO (centres unmarked) [Glycerol monocaprylate] | – | – | – | none
– | – | – | – | – | – | – | – | 3.36 | Propylene glycol monocaprylate | – | – | – | 56 mg/kg/day
